Test results as given in DBAASP.
In brackets after ≈: the same amount, converted by molar mass. Each block holds one compound with its values, some of them ahead of it.

Tests used:
Assay in all cases: ≥ marks a high value that may be exact or a test limit, other limits are often not marked, values filed in µg/mL are converted to µM
[1] = system: Staphylococcus aureus P1381
[2] = system: Staphylococcus aureus P1374
[3] = system: Staphylococcus aureus ATCC 6538
[4] = system: Micrococcus luteus AB93113
[5] = system: Staphylococcus aureus AB208193
[6] = system: Bacillus thuringiensis AB92037
[7] = system: Pseudomonas aeruginosa ATCC 9027
[8] = system: Escherichia coli ATCC 25922
[9] = system: Bacillus subtilis AB91021
[10] = system: Escherichia coli AB94012
[11] = system: Staphylococcus aureus ATCC 25923
[12] = system: Staphylococcus epidermidis AB208188
[13] = system: Staphylococcus aureus P1389
[14] = system: Staphylococcus epidermidis AB208187
[15] = system: Pseudomonas aeruginosa NBRC 13275
[16] = system: Escherichia coli DH5alpha
[17] = system: Staphylococcus aureus NBRC 13276
[18] = system: Staphylococcus epidermidis NBRC 12298
[19] = system: Bacillus subtilis DSM 347
[20] = system: Staphylococcus xylosus DSM 20287
[21] = system: Escherichia coli DSM 1116
[22] = system: Franconibacter helveticus DSM 18390
[23] = system: Pseudomonas aeruginosa PA214
[24] = system: Pseudomonas aeruginosa PA380
[25] = system: Pseudomonas aeruginosa PA330
[26] = system: Pseudomonas aeruginosa PAO1
[27] = system: Escherichia coli K-12
[28] = system: Salmonella enterica subsp. enterica serovar Pullorum C79-13
[29] = system: Acinetobacter baumannii
[30] = system: Staphylococcus aureus ATCC 29213
[31] = system: Staphylococcus epidermidis ATCC 12228
[32] = system: Escherichia coli K88
[33] = system: Escherichia coli 078
[34] = system: Bacillus subtilis CMCC 63501
[35] = system: Staphylococcus aureus
[36] = system: Pseudomonas aeruginosa 25349
[37] = system: Salmonella enterica subsp. enterica serovar Typhimurium ATCC 14028
[38] = system: Enterococcus faecalis ATCC 29212
[39] = system: Escherichia coli K99
[40] = system: Escherichia coli
[41] = system: Salmonella enterica subsp. enterica serovar Typhimurium C77-31
[42] = system: Escherichia coli UB1005
[43] = system: Candida albicans ATCC 24433
[44] = system: Candida parapsilosis ATCC 22019
[45] = system: Trichophyton rubrum ATCC 28189
[46] = system: Micrococcus luteus DSM 1790
[47] = system: Escherichia coli BL21AI

Compound: CC[C@H](C)[C@H](NC(=O)[C@H](CCCCN)NC(=O)[C@@H](NC(=O)[C@H](C)NC(=O)[C@H](CC(C)C)NC(=O)[C@H](CCCCN)NC(=O)[C@H](Cc1ccccc1)NC(=O)[C@H](CC(C)C)NC(=O)[C@H](Cc1cnc[nH]1)NC(=O)CNC(=O)[C@H](Cc1ccccc1)NC(=O)[C@@H](N)Cc1ccccc1)[C@@H](C)O)C(=O)N[C@H](C(=O)N1CCC[C@H]1C(=O)N[C@@H](CO)C(=O)N[C@@H](CC(C)C)C(=O)N[C@@H](Cc1ccccc1)C(=O)N[C@@H](CCCN=C(N)N)C(=O)O)[C@@H](C)CC [FFGHLFKLATKIIPSLFR]
MIC [1]: 1.5 µM (≈ 3.2 µg/mL)
MIC [2]: 2.9 µM (≈ 6.19 µg/mL)
MIC [3]: 1.5 µM (≈ 3.2 µg/mL)
MIC [4]: 23.4 µM (≈ 50 µg/mL)
MIC [5]: 2.9 µM (≈ 6.19 µg/mL)
MIC [6]: 2.9 µM (≈ 6.19 µg/mL)
MIC [7]: 5.9 µM (≈ 12.6 µg/mL)
MIC [8]: 5.9 µM (≈ 12.6 µg/mL)
MIC [9]: 2.9 µM (≈ 6.19 µg/mL)
MIC [10]: 11.7 µM (≈ 25 µg/mL)
MIC [11]: 2.9 µM (≈ 6.19 µg/mL)
MIC [12]: 2.9 µM (≈ 6.19 µg/mL)
MIC [13]: 2.9 µM (≈ 6.19 µg/mL)
MIC [14]: 2.9 µM (≈ 6.19 µg/mL)

Compound: CC[C@H](C)[C@H](N)C(=O)N[C@@H](C)C(=O)N[C@@H](CCCCN)C(=O)N[C@H](C(=O)N[C@@H](C)C(=O)NCC(=O)N[C@@H](CCCCN)C(=O)N[C@H](C(=O)N[C@@H](C)C(=O)N[C@@H](CCCCN)C(=O)N[C@H](C(=O)N[C@@H](C)C(=O)NCC(=O)N[C@@H](CCCCN)C(=O)N[C@H](C(=O)N[C@@H](C)C(=O)N[C@@H](CCCCN)C(=O)N[C@H](C(=O)N[C@@H](C)C(=O)NCC(=O)N[C@@H](CCCCN)C(=O)N[C@H](C(=O)N[C@@H](C)C(=O)N[C@@H](CCCCN)C(N)=O)[C@@H](C)CC)[C@@H](C)CC)[C@@H](C)CC)[C@@H](C)CC)[C@@H](C)CC)[C@@H](C)CC [IAKIAGKIAKIAGKIAKIAGKIAK]
MIC [19]: 0.842 µM (≈ 2 µg/mL)
MIC [20]: 0.842 µM (≈ 2 µg/mL)
MIC [21]: 1.68 µM (≈ 4 µg/mL)
MIC [22]: 1.19 µM (≈ 2.83 µg/mL)

Compound: CC[C@H](C)[C@H](NC(=O)[C@H](Cc1c[nH]c2ccccc12)NC(=O)[C@H](CCCCN)NC(=O)[C@H](CC(C)C)NC(=O)[C@@H](NC(=O)[C@H](CCCCN)NC(=O)CNC(=O)[C@@H](NC(=O)[C@H](CCCCN)NC(=O)[C@H](Cc1c[nH]c2ccccc12)NC(=O)[C@H](CC(C)C)NC(=O)[C@@H](N)CCCN=C(N)N)[C@@H](C)CC)C(C)C)C(N)=O [RLWKIGKVLKWI]
MIC [28]: 1 µM (≈ 1.54 µg/mL)
MIC [29]: 2 µM (≈ 3.08 µg/mL)
MIC [30]: 4 µM (≈ 6.16 µg/mL)
MIC [31]: 4 µM (≈ 6.16 µg/mL)
MIC [32]: 1 µM (≈ 1.54 µg/mL)
MIC [33]: 2 µM (≈ 3.08 µg/mL)
MIC [34]: 1 µM (≈ 1.54 µg/mL)
MIC [35]: 2 µM (≈ 3.08 µg/mL)
MIC [36]: 4 µM (≈ 6.16 µg/mL)
MIC [37]: 2 µM (≈ 3.08 µg/mL)
MIC [8]: 2 µM (≈ 3.08 µg/mL)
MIC [38]: 4 µM (≈ 6.16 µg/mL)
MIC [39]: 2 µM (≈ 3.08 µg/mL)
MIC [11]: 2 µM (≈ 3.08 µg/mL)
MIC [40]: 2 µM (≈ 3.08 µg/mL)
MIC [41]: 4 µM (≈ 6.16 µg/mL)
MIC [42]: 1 µM (≈ 1.54 µg/mL)

Compound: CC[C@H](C)[C@H](NC(=O)[C@H](CC(C)C)NC(=O)[C@H](CCC(=O)O)NC(=O)[C@H](CO)NC(=O)[C@H](CCCN=C(N)N)NC(=O)[C@@H](N)CO)C(=O)N[C@H](C(=O)N[C@@H](CCCN=C(N)N)C(=O)N[C@@H](CCC(N)=O)C(=O)N[C@@H](CCCN=C(N)N)C(=O)N[C@@H](CC(C)C)C(=O)N[C@@H](Cc1ccccc1)C(N)=O)C(C)C [SRSELIVRQRLF]
MIC [43]: ≥ 266 µM
MIC [44]: ≥ 266 µM
MIC [35]: > 266 µM
MIC [45]: ≥ 266 µM
MIC [40]: > 266 µM

Compound: CC[C@H](C)[C@H](NC(=O)[C@H](CCCN=C(N)N)NC(=O)[C@H](CCCN=C(N)N)NC(=O)[C@@H]1CCCN1C(=O)[C@@H]1CCCN1C(=O)[C@H](CCCCN)NC(=O)[C@@H]1CCCN1C(=O)[C@H](CCCN=C(N)N)NC(=O)[C@@H]1CCCN1C(=O)[C@H](CC(C)C)NC(=O)[C@H](Cc1ccc(O)cc1)NC(=O)[C@@H]1CCCN1C(=O)[C@@H]1CCCN1C(=O)[C@H](CCCCN)NC(=O)[C@H](CC(=O)O)NC(=O)[C@@H](N)C(C)C)C(=O)N[C@@H](Cc1ccc(O)cc1)C(=O)N[C@@H](CC(N)=O)C(=O)O [VDKPPYLPRPKPPRRIYN]
MIC [46]: 7.07 µM (≈ 15.6 µg/mL)
MIC [47]: 7.07 µM (≈ 15.6 µg/mL)

Other lines, results leading:

MIC [15]: 3.12 µM (≈ 5.73 µg/mL)
MIC [16]: 3.12 µM (≈ 5.73 µg/mL)
MIC [17]: ≥ 50 µM
MIC [18]: 12.5 µM (≈ 22.9 µg/mL)
Compound: CC[C@H](C)[C@H](NC(=O)CN)C(=O)NCC(=O)N[C@@H](CCCCN)C(=O)N[C@@H](Cc1ccccc1)C(=O)N[C@@H](CC(C)C)C(=O)N[C@@H](Cc1cnc[nH]1)C(=O)N[C@@H](CO)C(=O)N[C@@H](C)C(=O)N[C@@H](CCCCN)C(=O)N[C@@H](CCCCN)C(=O)N[C@@H](Cc1ccccc1)C(=O)NCC(=O)N[C@@H](CCCCN)C(=O)N[C@@H](C)C(=O)N[C@@H](Cc1ccccc1)C(=O)N[C@H](C(N)=O)C(C)C [GIGKFLHSAKKFGKAFV]

MIC [23]: 6.3 µM (≈ 12.6 µg/mL)
MIC [24]: ≥ 50 µM
MIC [25]: 12.5 µM (≈ 25 µg/mL)
MIC [26]: 12.5 µM (≈ 25 µg/mL)
MIC [27]: 3.1 µM (≈ 6.21 µg/mL)
Compound: CC(C)C[C@H](NC(=O)[C@H](C)NC(=O)[C@H](CCCCN)NC(=O)[C@H](CCCCN)NC(=O)[C@H](CCCCN)NC(=O)[C@H](CCCCN)NC(=O)[C@@H](N)CCCCN)C(=O)N[C@@H](Cc1ccccc1)C(=O)N[C@@H](CC(C)C)C(=O)N[C@@H](CCCCN)C(=O)N[C@@H](CC(C)C)C(=O)N[C@@H](Cc1c[nH]c2ccccc12)C(=O)N[C@@H](C)C(=O)N[C@@H](C)C(=O)N[C@@H](Cc1ccccc1)C(=O)N[C@@H](CC(C)C)C(=O)N[C@@H](C)C(N)=O [KKKKKALFLKLWAAFLA]
